Test system: patients with seasonal allergic rhinitis (SAR)
Experiment: MP 428 two-week randomized double-blind study: Total Nasal Symptom Score (TNSS), change from baseline
Assay type: in vivo, human
Design: key to Change from Baseline in AM TNSS, Mean / Change from Baseline in AM TNSS, LS Mean / Change from Baseline in AM TNSS, Median: TNSS sum of 4 symptoms each 0-3 (0=none, 3=severe); change from baseline
Conditions: for AUC of Change from Baseline in TNSS (AM and PM Combined), Mean / AUC of Change from Baseline in TNSS (AM and PM Combined), Median / AUC of Change from Baseline in TNSS (AM and PM Combined), LS Mean: Day 1 to Day 14; for AUC of Change from Baseline in TNSS (AM and PM Combined), LS Mean: ANCOVA
Protocol: A two-week, randomized, double-blind study, which evaluated the effects of the co-administration of ASTELIN® (azelastine hydrochloride (HCl)) and FLONASE® (fluticasone propionate) compared to either product alone in patients with seasonal allergic rhinitis (SAR) was conducted during the 2006 Texas mountain cedar season. After a 5-day placebo lead-in period, 151 patients with moderate-to-severe allergic rhinitis symptoms were randomized to either: (1) (49 total patients) ASTELIN® (azelastine hydrochloride (HCl)) plus placebo saline nasal spray 2 sprays per nostril, 15 minutes apart, twice daily (AM & PM); (2) (50 total patients) FLONASE® (fluticasone propionate) plus placebo saline nasal spray, 2 sprays per nostril, 15 minutes apart, once daily (AM) and two sessions of placebo saline nasal spray, 2 sprays per nostril, 15 minutes apart (PM); or (3) (52 total patients) the co-administration of ASTELIN® (azelastine hydrochloride (HCl)) 2 sprays per nostril plus FLONASE® (fluticasone propionate) 2 sprays per nostril (AM), 15 minutes apart, and ASTELIN® (azelastine hydrochloride (HCl)) 2 sprays per nostril plus placebo saline nasal spray, 15 minutes apart, (PM) for a 2-week double-blind treatment period.
The primary efficacy variable was the change from baseline in the Total Nasal Symptom Score (TNSS), which comprised sneezing, itchy nose, runny nose, and nasal congestion (individual symptoms scores were assigned a value between 0 and 3, where 0=no symptoms and 3=severe symptoms). This study was not statistically designed to assess the differences between ASTELIN® and FLONASE®.

[1] = Day 12, Per-Protocol Population
[2] = Day 13, Intent-to-Treat Population
[3] = Day 13, Per-Protocol Population
[4] = Day 14, Intent-to-Treat Population
[5] = Day 14, Per-Protocol Population
[6] = Overall (Day 2 to Day 14), Intent-to-Treat Population
[7] = Overall (Day 2 to Day 14), Per-Protocol Population

CCC(=O)O[C@]1(C(=O)SCF)[C@H](C)C[C@H]2[C@@H]3C[C@H](F)C4=CC(=O)C=C[C@]4(C)[C@@]3(F)[C@@H](O)C[C@@]21C [Fluticasone, fluticasone propionate]
Percent Change from Baseline in PM TNSS, Median (Day 12, Intent-to-Treat Population): −31.82% | Change from Baseline in AM and PM Combined TNSS, LS Mean (Day 12, Intent-to-Treat Population, ANCOVA model): −6.12 | Change from Baseline in AM and PM Combined TNSS, LS Mean [1]: −6.16 | Change from Baseline in AM and PM Combined TNSS, Mean [1]: −6.20 | Change from Baseline in AM and PM Combined TNSS, Median [1]: −5.17 | Percent Change from Baseline in AM and PM Combined TNSS, LS Mean [1]: −31.45% | Percent Change from Baseline in AM and PM Combined TNSS, Mean [1]: −31.50% | Percent Change from Baseline in AM and PM Combined TNSS, Median [1]: −27.78% | Change from Baseline in AM TNSS, LS Mean [2]: −3.38 | Change from Baseline in AM TNSS, Mean [2]: −3.32 | Change from Baseline in AM TNSS, Median [2]: −3.00 | Change from Baseline in AM and PM Combined TNSS, Mean [2]: −6.83 | Change from Baseline in AM and PM Combined TNSS, Median [2]: −6.20 | Change from Baseline in PM TNSS, LS Mean [2]: −3.57 | Change from Baseline in PM TNSS, Mean [2]: −3.51 | Change from Baseline in PM TNSS, Median [2]: −3.00 | Percent Change from Baseline in AM TNSS, LS Mean [2]: −34.62% | Percent Change from Baseline in AM TNSS, Mean [2]: −34.03% | Percent Change from Baseline in AM TNSS, Median [2]: −28.36% | Percent Change from Baseline in AM and PM Combined TNSS, LS Mean [2]: −35.63% | Percent Change from Baseline in AM and PM Combined TNSS, Mean [2]: −34.97% | Percent Change from Baseline in AM and PM Combined TNSS, Median [2]: −30.43% | Percent Change from Baseline in PM TNSS, LS Mean [2]: −36.56% | Percent Change from Baseline in PM TNSS, Mean [2]: −35.75% | Percent Change from Baseline in PM TNSS, Median [2]: −33.33% | Change from Baseline in AM and PM Combined TNSS, LS Mean (Day 13, Intent-to-Treat Population, ANCOVA model): −6.95 | Change from Baseline in AM and PM Combined TNSS, LS Mean [3]: −7.03 | Change from Baseline in AM and PM Combined TNSS, Mean [3]: −7.01 | Change from Baseline in AM and PM Combined TNSS, Median [3]: −6.50 | Percent Change from Baseline in AM and PM Combined TNSS, LS Mean [3]: −35.99% | Percent Change from Baseline in AM and PM Combined TNSS, Mean [3]: −35.73% | Percent Change from Baseline in AM and PM Combined TNSS, Median [3]: −30.43% | Change from Baseline in AM TNSS, LS Mean [4]: −3.33 | Change from Baseline in AM TNSS, Mean [4]: −3.28 | Change from Baseline in AM TNSS, Median [4]: −3.00 | Change from Baseline in AM and PM Combined TNSS, Mean [4]: −6.91 | Change from Baseline in AM and PM Combined TNSS, Median [4]: −5.85 | Change from Baseline in PM TNSS, LS Mean [4]: −3.70 | Change from Baseline in PM TNSS, Mean [4]: −3.63 | Change from Baseline in PM TNSS, Median [4]: −3.00 | Percent Change from Baseline in AM TNSS, LS Mean [4]: −33.54% | Percent Change from Baseline in AM TNSS, Mean [4]: −33.12% | Percent Change from Baseline in AM TNSS, Median [4]: −31.03% | Percent Change from Baseline in AM and PM Combined TNSS, LS Mean [4]: −35.62% | Percent Change from Baseline in AM and PM Combined TNSS, Mean [4]: −35.00% | Percent Change from Baseline in AM and PM Combined TNSS, Median [4]: −28.71% | Percent Change from Baseline in PM TNSS, LS Mean [4]: −37.70% | Percent Change from Baseline in PM TNSS, Mean [4]: −36.79% | Percent Change from Baseline in PM TNSS, Median [4]: −33.33% | Change from Baseline in AM and PM Combined TNSS, LS Mean (Day 14, Intent-to-Treat Population, ANCOVA model): −7.02 | Change from Baseline in AM and PM Combined TNSS, LS Mean [5]: −7.15 | Change from Baseline in AM and PM Combined TNSS, Mean [5]: −7.14 | Change from Baseline in AM and PM Combined TNSS, Median [5]: −6.00 | Percent Change from Baseline in AM and PM Combined TNSS, LS Mean [5]: −36.26% | Percent Change from Baseline in AM and PM Combined TNSS, Mean [5]: −36.03% | Percent Change from Baseline in AM and PM Combined TNSS, Median [5]: −34.31% | AUC of Change from Baseline in TNSS (AM and PM Combined), Mean (Intent-to-Treat Population): −64.53 | AUC of Change from Baseline in TNSS (AM and PM Combined), Median (Intent-to-Treat Population): −51.13 | AUC of Change from Baseline in TNSS (AM and PM Combined), LS Mean (Intent-to-Treat Population): −65.00 | Change from Baseline in AM TNSS, LS Mean [6]: −2.55 | Change from Baseline in AM TNSS, Mean [6]: −2.57 | Change from Baseline in AM TNSS, Median [6]: −2.14 | Change from Baseline in AM and PM Combined TNSS, Mean [6]: −5.06 | Change from Baseline in AM and PM Combined TNSS, Median [6]: −3.91 | Change from Baseline in PM TNSS, LS Mean [6]: −2.71 | Change from Baseline in PM TNSS, Mean [6]: −2.43 | Change from Baseline in PM TNSS, Median [6]: −1.86 | Percent Change from Baseline in AM TNSS, LS Mean [6]: −26.39% | Percent Change from Baseline in AM TNSS, Mean [6]: −26.49% | Percent Change from Baseline in AM TNSS, Median [6]: −23.89% | Percent Change from Baseline in AM and PM Combined TNSS, LS Mean [6]: −27.13% | Percent Change from Baseline in AM and PM Combined TNSS, Mean [6]: −26.12% | Percent Change from Baseline in AM and PM Combined TNSS, Median [6]: −21.93% | Percent Change from Baseline in PM TNSS, LS Mean [6]: −27.75% | Percent Change from Baseline in PM TNSS, Mean [6]: −24.98% | Percent Change from Baseline in PM TNSS, Median [6]: −20.34% | Change from Baseline in AM and PM Combined TNSS, LS Mean (Overall (Day 2 to Day 14), Intent-to-Treat Population, ANCOVA model): −5.24 | Change from Baseline in AM and PM Combined TNSS, LS Mean [7]: −5.24 | Change from Baseline in AM and PM Combined TNSS, Mean [7]: −5.14 | Change from Baseline in AM and PM Combined TNSS, Median [7]: −3.91 | Percent Change from Baseline in AM and PM Combined TNSS, LS Mean [7]: −27.12% | Percent Change from Baseline in AM and PM Combined TNSS, Mean [7]: −26.46% | Percent Change from Baseline in AM and PM Combined TNSS, Median [7]: −21.93% | AUC of Change from Baseline in TNSS (AM and PM Combined), Mean (Per-Protocol Population): −65.66 | AUC of Change from Baseline in TNSS (AM and PM Combined), Median (Per-Protocol Population): −51.13 | AUC of Change from Baseline in TNSS (AM and PM Combined), LS Mean (Per-Protocol Population): −65.38
